Reference: PMC8351955, “Targeting Mycobacterium tuberculosis response to environmental cues for the development of effective antitubercular drugs” (PLoS Biology, 2021)
Several values for one entry are separate records, joined by “and”; a condition that tells them apart may be missing. Equal entries are not always repeated. Where two headings read alike, the source gives them in different places.

Legend:
[1] = test system: Mtb growth in J774 macrophage-like cells; experiment: J774 infection in 96-well plates, mKO fluorescence 6 days post-infection; format: cell-based, Mycobacterium tuberculosis; settings: for % Growth: Fig. 2D, DMSO = 100
Experimental: For J774 infection in 96-well plates, 1.8 × 10^5 J774 cells were seeded per well in 180 μl of J774 infection media 1 day prior to infection. On the day of the assay, log-phase Mtb constitutively expressing mKO were pelleted and resuspended in 1 ml basal uptake buffer, passed 6× through a tuberculin syringe with a 25 G × 5/8″ needle, then resuspended in J774 infection media to a final OD600 = 0.2. Media was removed from 96-well plate containing the J774 cells, with 140 μl of fresh J774 infection media added back to each well. A volume of 40 μl of the Mtb suspension at OD600 = 0.2 was added to each well, followed by addition of appropriate concentration of compound or DMSO in a 20-μl final volume in J774 infection media (compound final concentration 10 μM, rifampicin final concentration 5 μM, DMSO final concentration 0.1%/well). Bacterial mKO fluorescence was read immediately after infection using a Biotek Synergy Neo2 microplate reader (bottom read monochromator, excitation 543/10 nm, emission 565/10 nm), and again 6 days post-infection. Plates were kept in humidified ziplock bags in a 37°C, 5% CO2 incubator. mKO fluorescence in DMSO-treated control samples were defined as 100% growth, and fluorescence observed in treatment conditions calculated as a percentage from that set value.

[2] = test system: WT Mtb (Erdman) in primary murine BMDMs; experiment: Primary murine bone marrow-derived macrophage infection, CFU; format: cell-based, Mycobacterium tuberculosis; settings: Fig. 2E, 10 µM
Experimental: C57BL/6J wild-type mice (Jackson Laboratories) were used for extraction of BMDMs. Cells were harvested and expanded in DMEM containing 10% FBS, 15% L-cell conditioned media, 2 mM L-glutamine, 1 mM sodium pyruvate, and penicillin/streptomycin as needed in a 37°C incubator in a 5% CO2 atmosphere. […] Macrophages were lysed with water containing 0.01% sodium dodecyl sulfate and a dilution series of the samples plated on 7H10 agar for CFU determination.

[3] = test system: CDC1551(rv2390c′::GFP) reporter Mtb strain; settings: for Normalized % induction: Fig. 2C, DMSO = 100
Mtb [4] = experiment: Mtb growth assay in cholesterol medium (OD600); settings: for OD600: Fig. 2G
From the text: (§1) Bacterial growth was tracked by measuring OD600 every 3 days for 12 days. […] Bacterial growth was tracked by measurement of OD600 every 3 days over 12 days.

Mtb CDC1551 = experiment: Intrabacterial drug accumulation assay (LC-MS); settings: 24-hour exposure, 7H9 pH 7 ± 250 mM NaCl
Mtb [5] = experiment: Mtb growth assay in standard 7H9 medium (OD600); settings: Fig. 2F
From the text: as §1

J774 cells = experiment: Intracellular drug accumulation assay in J774 cells (LC-MS); settings: 24 hours
Mtb-infected J774 cells = settings: 10 μM, 24 hours, 5 days post-infection
Mtb [6] = test system: Mtb; set-up: method as in PMID 26574016, PMID 27227164; settings: mice do not form caseous necrotic lesions; cited from earlier work
Mtb [7] = test system: Mtb; set-up: method as in PMID 26574016, PMID 27227164; settings: subset of mice failing to respond; cited from earlier work

Structure (SMILES): CCSc1ccc(CN2CCN(c3nc4ccccc4o3)CC2)cc1 [JSF-4300, 2-(4-(4-(ethylthio)benzyl)piperazin-1-yl)benzo[d]oxazole]
- Inhibition of Mtb growth in J774 cells ([1]; 10 μM, 6 days post-infection): continuing to demonstrate the phenotypes seen with the parental C6 compound
- % Growth ([1]; average of 4 replicates): 60.6248%
- % Growth ([1]; individual replicates): 59.61% and 62.908% and 58.5309% and 61.4502%
- CFU/ml ([2]; day 2, average): 472667 CFU/ml
- CFU/ml ([2]; day 2, individual replicates): 482000 CFU/ml and 478000 CFU/ml and 458000 CFU/ml
- CFU/ml ([2]; day 4, average): 660000 CFU/ml
- CFU/ml ([2]; day 4, individual replicates): 620000 CFU/ml and 660000 CFU/ml and 700000 CFU/ml
- CFU/ml ([2]; day 6, average): 806667 CFU/ml
- CFU/ml ([2]; day 6, individual replicates): 740000 CFU/ml (2×) and 940000 CFU/ml
- CFU/ml ([2]; day 8, average): 966667 CFU/ml
- CFU/ml ([2]; day 8, individual replicates): 1080000 CFU/ml and 800000 CFU/ml and 1020000 CFU/ml
- Normalized % induction ([3]; average of 3 replicates): 125.329%
- Normalized % induction ([3]; individual replicates): 120.3% and 121.44% and 134.248%
- Ability to increase rv2390c′::GFP reporter signal in high [Cl−] ([3]; pH 7): continuing to demonstrate the phenotypes seen with the parental C6 compound
- Inhibition of Mtb growth in cholesterol media (Mtb [4]; 10 μM, OD600 over 12 days): continuing to demonstrate the phenotypes seen with the parental C6 compound
- OD600 (Mtb [4]; day 3, average): 0.06
- OD600 (Mtb [4]; day 3, individual replicates): 0.06
- OD600 (Mtb [4]; day 6, average): 0.09333
- OD600 (Mtb [4]; day 6, individual replicates): 0.1 (2×) and 0.08
- OD600 (Mtb [4]; day 9, average): 0.1333
- OD600 (Mtb [4]; day 9, individual replicates): 0.14 (2×) and 0.12
- OD600 (Mtb [4]; day 12, average): 0.16
- OD600 (Mtb [4]; day 12, individual replicates): 0.16 and 0.14 and 0.18
- Intrabacterial accumulation in Mtb (Mtb CDC1551): robust accumulation
- OD600 (Mtb [5]; day 3, average): 0.1733
- OD600 (Mtb [5]; day 3, individual replicates): 0.18 (2×) and 0.16
- OD600 (Mtb [5]; day 6, average): 0.3867
- OD600 (Mtb [5]; day 6, individual replicates): 0.38 (2×) and 0.4
- OD600 (Mtb [5]; day 9, average): 0.4933
- OD600 (Mtb [5]; day 9, individual replicates): 0.48 (2×) and 0.52
- OD600 (Mtb [5]; day 12, average): 0.6467
- OD600 (Mtb [5]; day 12, individual replicates): 0.64 (2×) and 0.66
- Intracellular accumulation in J774 cells (J774 cells): robust accumulation
- Accumulation in Mtb-infected J774 cells (Mtb-infected J774 cells): robust accumulation

Structure (SMILES): COc1nc2ccc(Br)cc2cc1[C@@H](c1ccccc1)[C@@](O)(CCN(C)C)c1cccc2ccccc12 [bedaquiline]
- Efficacy across animals in BALB/c mice (Mtb [6]): uniform efficacy across animals
- Response in C3HeB/FeJ mice (Mtb [7]): heterogeneous response

Structure (SMILES): NC(=O)c1cnccn1 [pyrazinamide]
- Efficacy across animals in BALB/c mice (Mtb [6]): uniform efficacy across animals
- Response in C3HeB/FeJ mice (Mtb [7]): heterogeneous response
